Experiments:
Assay in all cases: relative viability (nuclei count vs DMSO), 5 days (fraction); higher = more cells survive
[1] = compound: Nc1nc(Nc2ccc3c(c2)CC[C@@H](N2CCCC2)CC3)nn1-c1cc2c(nn1)-c1ccccc1CCC2 [Bemcentinib] + COc1cc2c(Oc3ccc(NC(=O)C4(C(=O)Nc5ccc(F)cc5)CC4)cc3F)ccnc2cc1OCCCN1CCOCC1 [Foretinib] (partner 0.25 µM)
Method in brief: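 Medians of duplicate plates are given as relative viability. That measure is the nuclei count in treated wells divided by the count in vehicle wells. Counts were taken on 4× images of lung cancer cell lines in 1536-well plates, 5 days after pin-tool dosing the day after seeding with one drug alone or a fixed anchor-drug dose plus five library-drug doses (not always all listed) in √10 steps.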

[2] = compound: CC1=CC=C(C=C1)C(=O)CN2C3=C(CCCC3)SC2=N [Pifithrin_alpha]
Method in brief: (§1)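 In 1536-well plates, lung cancer cell lines rested overnight at 37 °C before five library-drug doses (not always all listed), √10 apart, were pinned onto vehicle-anchored plates. Nuclei were counted with MetaXpress from 4× Hoechst images taken after 5 days without medium change. Viability compares treated-well with vehicle-well nuclei as a median over plates, and plates needed control CV below 25% plus at least one doubling to pass.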

[3] = compound: CNC(=O)c1ccccc1Sc1ccc2c(/C=C/c3ccccn3)n[nH]c2c1 [Axitinib]
Method in brief: as §1

[4] = compound: Nc1nc(Nc2ccc3c(c2)CC[C@@H](N2CCCC2)CC3)nn1-c1cc2c(nn1)-c1ccccc1CCC2 [Bemcentinib]
Method in brief: as §1

| Cell Line | relative viability ([1]; first compound 0.04 µM) | relative viability ([1]; first compound 0.1265 µM) | relative viability ([1]; first compound 0.4 µM) | relative viability ([1]; first compound 4 µM) | relative viability ([2]; 1 µM) | relative viability ([2]; 3.162 µM) | relative viability ([2]; 10 µM) | relative viability ([2]; 31.62 µM) | relative viability ([2]; 100 µM) | relative viability ([3]; 0.005 µM) | relative viability ([3]; 0.01581 µM) | relative viability ([3]; 0.05 µM) | relative viability ([3]; 0.1581 µM) | relative viability ([3]; 0.5 µM) | relative viability ([4]; 0.04 µM) | relative viability ([4]; 0.1265 µM) | relative viability ([4]; 0.4 µM) | relative viability ([4]; 1.265 µM) | relative viability ([4]; 4 µM) | relative viability ([1]; first compound 1.265 µM) |
| --- | --- | --- | --- | --- | --- | --- | --- | --- | --- | --- | --- | --- | --- | --- | --- | --- | --- | --- | --- | --- |
| NCI-H1793 | 0.816 | 0.726 | 0.772 | 0.693 | 0.734 | 0.817 | 0.838 | 0.823 | 0.874 | 1.06 | 0.833 | 0.889 | 0.819 | 0.647 | 0.834 | 1.05 | 0.882 | 0.686 | 0.999 | – |
| NCI-H522 | – | – | – | – | 0.79 | 1.12 | 0.947 | 0.85 | 0.972 | 0.914 | 0.969 | 0.996 | 0.882 | 0.693 | 0.927 | 0.96 | 1.06 | 0.9 | 0.879 | – |
| LU99A | 0.751 | 0.763 | 0.778 | 0.837 | 0.941 | 0.89 | 0.903 | – | 0.869 | 0.903 | 1.02 | 1.03 | 0.883 | 0.904 | 0.903 | 1.02 | 0.98 | 1.02 | 1.02 | 0.816 |
| NCI-H1437 | 1.28 | 1.26 | 1.33 | 1.3 | 1.02 | 1.05 | 0.953 | 0.827 | 0.793 | 1.05 | 0.991 | 0.961 | 0.983 | 1.01 | 0.925 | 1.01 | 1.03 | 0.965 | 0.969 | 1.21 |
| NCI-H460 | 1.01 | 1.22 | 1.1 | 1 | 1.06 | 0.949 | 0.872 | 0.592 | 0.837 | 0.976 | 0.981 | 1.05 | 1.01 | 1.1 | 0.973 | 1.1 | 1.06 | 1.07 | 1.01 | 1.07 |
| NCI-H1395 | 0.994 | 1.05 | 1.04 | 1.05 | – | 0.902 | 0.915 | 0.693 | 0.85 | 0.992 | 0.719 | 0.985 | 0.886 | 0.878 | 0.893 | 1.02 | 0.952 | 0.892 | 0.838 | 0.934 |
| NCI-H2085 | 1.08 | 1.11 | 0.915 | 0.889 | 0.892 | 0.973 | 0.947 | 0.897 | 0.959 | 1.02 | 1.05 | 1.03 | 0.998 | 0.998 | 0.964 | 1.03 | 0.994 | 1.02 | 0.993 | 1.01 |
| NCI-H1703 | – | 0.336 | 0.377 | 0.334 | 0.835 | 0.945 | 0.908 | 0.902 | 0.879 | 0.846 | 0.48 | 0.266 | 0.216 | 0.238 | 0.664 | 0.966 | 0.906 | 0.979 | 0.877 | 0.312 |
| HCC-366 | 0.888 | 0.952 | 0.946 | 0.941 | 1.01 | 0.974 | 1.01 | – | 1.04 | 0.99 | 0.999 | 1.06 | 1 | 1.04 | 1.07 | 1.07 | 0.987 | 0.986 | 0.995 | 0.914 |
| NCI-H1648 | – | – | – | – | 0.791 | 0.852 | 0.869 | 0.625 | 0.691 | 1.03 | 0.984 | 0.61 | 0.882 | 0.632 | 0.85 | 1.06 | 1.07 | 0.724 | 0.694 | – |
| NCI-H322M | 0.939 | 1.01 | 0.919 | 0.97 | 0.906 | 0.891 | 1.01 | 0.851 | 0.869 | 1.03 | 0.847 | 0.992 | 0.813 | 1.03 | 0.873 | 0.966 | 0.982 | 0.953 | 0.998 | 1.11 |
| 201T | 1.07 | 1.33 | 1.24 | 1.11 | 0.992 | 0.781 | 0.679 | 0.646 | 0.724 | 0.994 | 0.936 | 0.953 | 0.964 | 0.955 | 0.943 | 0.982 | 1.05 | 0.947 | 1.01 | 1.12 |
| SK-LU-1 | 0.854 | 0.988 | 0.89 | 0.826 | 1.08 | 1.16 | 1.21 | 0.805 | 1.21 | 1.06 | 1.12 | 0.946 | 1.04 | 1.15 | 1.04 | 1.19 | 1.13 | 1.08 | 1.12 | 0.896 |
| ChaGo-K-1 | 0.93 | 1.04 | 0.899 | 0.906 | 0.882 | 0.987 | 1 | 0.842 | 1.05 | 1.06 | 1.02 | 1.05 | 0.922 | 0.936 | 1.01 | 0.966 | 1.03 | 0.938 | 0.929 | 0.951 |
| NCI-H1755 | 0.925 | 0.923 | 0.947 | 0.935 | 0.919 | 0.964 | 0.882 | 0.841 | 1.05 | 1.02 | 1.01 | 1.05 | 0.992 | 0.997 | 1.06 | 1.05 | 1.02 | 1.05 | 1.08 | 0.987 |
| NCI-H1666 | 0.959 | 1.26 | 1.06 | 0.911 | 1.01 | 0.909 | 0.837 | 0.795 | 0.776 | 1.06 | 0.965 | 0.965 | 1 | 0.977 | 0.902 | 1.34 | 1.03 | 1.06 | 0.998 | 0.856 |
| NCI-H1792 | – | – | – | – | 0.725 | 0.938 | 0.731 | 0.621 | 0.886 | 0.965 | 0.814 | 0.855 | 0.935 | 0.7 | 0.877 | 1.12 | 1.08 | 0.841 | 0.85 | – |

— the supplement of paper PMC10307832
